Test results published in patent EP0007672A1, “Isocyanoalkenes, process and useful intermediates for their preparation, pharmaceutical and fungicidal preparations containing those isocyanoalkenes and the use of the fungicidal preparations in agriculture” (GIST-BROCADES N.V., priority 1978, dated 1980).
In brackets after ≈: the same amount, converted by molar mass. Like-named read-outs stand apart in the source and are kept apart here.

Key:
Assay in all cases: MIC (Minimum Inhibitory Concentration)
Format in all cases: cell-based
Trichophyton violoceum = conditions: Trichophyton, read-out: MIC values
[1] = test system: Streptococcus haemolyticus; conditions: Streptococcus, read-out: MIC values
Fusarium (bulb) = Fusarium (bulb) A 3252
Pasteurella multocida = conditions: Pasteurella multocida, read-out: MIC values
Candida albicans = test system: Candida albicans
Trichophyton rubrum = test system: Trichophyton rubrum
Trichophyton tonsurans = conditions: Trichophyton tonsurans, read-out: MIC values
Fusarium (tulip) = Fusarium (tulip) A 3253
[2] = test system: Trichophyton mentagrophytus
Trichophyton quickeaneum = conditions: Trichophyton, read-out: MIC values
Trichophyton equinum = test system: Trichophyton equinum
Fusarium solani = conditions: Fusarium solani, read-out: MIC values
[3] = test system: Trichophyton soudanese joyeux; conditions: Trichophyton, read-out: MIC values
[4] = test system: Trichophyton schoenleinii; conditions: Trichophyton schoenleinii, read-out: MIC values
Trichophyton verrucosum = test system: Trichophyton verrucosum
Rhizoctonia solani = conditions: Rhizoctonia solani, read-out: MIC values

[C-]#[N+]C(=C1CCCC1)S(=O)(=O)c1ccc(C)cc1 [Example 9, a-cyclopentylidene-a-(4-toluenesulphonyl)-methylisocyanide]
MIC (Trichophyton violoceum): 0.4 µg/mL (≈ 1.53 µM)
MIC [1]: 25 µg/mL (≈ 95.7 µM)
MIC (Fusarium (bulb)): 25 µg/mL (≈ 95.7 µM)
MIC (Pasteurella multocida): 3 µg/mL (≈ 11.5 µM)
MIC (Candida albicans; read-out: MIC values, Candida albicans A 7): 0.8 µg/mL (≈ 3.06 µM)
MIC (Candida albicans; read-out: MIC values, Candida albicans A 3140): 1.5 µg/mL (≈ 5.74 µM)
MIC (Candida albicans; read-out: MIC values, Candida albicans A 3141): 3 µg/mL (≈ 11.5 µM)
MIC (Candida albicans; read-out: MIC values, Candida albicans A 3142): 1.5 µg/mL (≈ 5.74 µM)
MIC (Candida albicans; read-out: MIC values, Candida albicans A 3143): 0.8 µg/mL (≈ 3.06 µM)
MIC (Candida albicans; read-out: MIC values, Candida albicans A 3144): 1.5 µg/mL (≈ 5.74 µM)
MIC (Candida albicans; read-out: MIC values, Candida albicans A 3145): 1.5 µg/mL (≈ 5.74 µM)
MIC (Candida albicans; read-out: MIC values, Candida albicans A 3165): 3 µg/mL (≈ 11.5 µM)
MIC (Candida albicans; read-out: MIC values, Candida albicans A 3166): 6 µg/mL (≈ 23 µM)
MIC (Candida albicans; read-out: MIC values, Candida albicans A 3167): 3 µg/mL (≈ 11.5 µM)
MIC (Candida albicans; read-out: MIC values, Candida albicans A 3168): 6 µg/mL (≈ 23 µM)
MIC (Candida albicans; read-out: MIC values, Candida albicans A 3169): 3 µg/mL (≈ 11.5 µM)
MIC (Candida albicans; read-out: MIC values, Candida albicans A 3171): 3 µg/mL (≈ 11.5 µM)
MIC (Candida albicans; read-out: MIC values, Candida albicans A 3184): 1.5 µg/mL (≈ 5.74 µM)
MIC (Candida albicans; read-out: MIC values, Candida albicans A 3190): 1.5 µg/mL (≈ 5.74 µM)
MIC (Candida albicans; read-out: MIC values, Candida albicans A 3191): 0.8 µg/mL (≈ 3.06 µM)
MIC (Candida albicans; read-out: MIC values, Candida albicans A 3192): 0.8 µg/mL (≈ 3.06 µM)
MIC (Candida albicans; read-out: MIC values, Candida albicans A 3194): 0.8 µg/mL (≈ 3.06 µM)
MIC (Candida albicans; read-out: MIC values, Candida albicans A 3196): 3 µg/mL (≈ 11.5 µM)
MIC (Trichophyton rubrum; read-out: MIC values, Trichophyton rubrum 218-65): 0.8 µg/mL (≈ 3.06 µM)
MIC (Trichophyton rubrum; read-out: MIC values, Trichophyton rubrum 494-62): 1.5 µg/mL (≈ 5.74 µM)
MIC (Trichophyton rubrum; read-out: MIC values, Trichophyton rubrum A 810): 0.1 µg/mL (≈ 0.383 µM)
MIC (Trichophyton tonsurans): 6 µg/mL (≈ 23 µM)
MIC (Fusarium (tulip)): 12.5 µg/mL (≈ 47.8 µM)
MIC ([2]; read-out: MIC values, Trichophyton mentagrophytus 367-68): 3 µg/mL (≈ 11.5 µM)
MIC ([2]; read-out: MIC values, Trichophyton mentagrophytus 421-67): 6 µg/mL (≈ 23 µM)
MIC ([2]; read-out: MIC values, Trichophyton mentagrophytus A 3252): 1.5 µg/mL (≈ 5.74 µM)
MIC ([2]; read-out: MIC values, Trichophyton mentagrophytus R 177): 3 µg/mL (≈ 11.5 µM)
MIC ([2]; read-out: MIC values, Trichophyton mentagrophytus R 178): 12.5 µg/mL (≈ 47.8 µM)
MIC ([2]; read-out: MIC values, Trichophyton mentagrophytus RRL 305): 0.8 µg/mL (≈ 3.06 µM)
MIC (Trichophyton quickeaneum): 1.5 µg/mL (≈ 5.74 µM)
MIC (Trichophyton equinum; read-out: MIC values, Trichophyton equinum 182-76): 3 µg/mL (≈ 11.5 µM)
MIC (Trichophyton equinum; read-out: MIC values, Trichophyton equinum 441-51): 0.1 µg/mL (≈ 0.383 µM)
MIC (Trichophyton equinum; read-out: MIC values, Trichophyton equinum 856-71): < 0.05 µg/mL
MIC (Fusarium solani): 12.5 µg/mL (≈ 47.8 µM)
MIC [3]: 6 µg/mL (≈ 23 µM)
MIC [4]: 0.4 µg/mL (≈ 1.53 µM)
MIC (Trichophyton verrucosum; read-out: MIC values, Trichophyton verrucosum 134-66): < 0.05 µg/mL
MIC (Trichophyton verrucosum; read-out: MIC values, Trichophyton verrucosum A 2922): 0.4 µg/mL (≈ 1.53 µM)
MIC (Rhizoctonia solani): 1.5 µg/mL (≈ 5.74 µM)
